From patent EP1074267B1, “Induction of antigen-specific T cells by interferon” (Dainippon Sumitomo Pharma Co., Ltd., priority 1999, dated 2001)
Where no end group is shown, it is not given here.

System: EL-4 cells labeled with 51Cr and pulsed with the peptide Flu366-374
Settings: administered alone using the osmotic pump (100 µg peptide or 10^5 U IFN-α, subcutaneous, 3-day release); spleen 7 days after administration, 5 days re-stimulation; Fig. 1(A)

“ASNESMETM [peptide, Ala-Ser-Asn-Glu-Ser-Met-Glu-Thr-Met]” was tested, and the “peptide-specific CTL induction (cytotoxic activity for peptide-pulsed EL-4 cells)” value was “no peptide-specific CTL was induced”.
